Experimental findings from patent publication US12723063B2, “GIPR-agonist compounds” (Eli Lilly and Company, priority 2019, dated 2026) are described below.

Assay [1] has as its target T1, human GLP-1R (Homo sapiens, UniProt P43220).
T1 construct: expressed in transfected cells; crude membranes
Nature of the assay: [125I]-GLP-1 binding, SPA with WGA beads, 0.1% bacitracin. Conditions: geometric mean, read-out: hGLP1R Ki. The method in brief: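 Binding buffer was 25 mM HEPES pH 7.4 with 2.5 mM CaCl2, 1 mM MgCl2, 0.1% (w/v) bacitracin, 0.003% Tween-20 and EDTA-free protease inhibitors. Four-parameter regression gave IC50, converted to Ki (geometric mean, SEM, n independent days).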

In assay [2] the target is T2, human glucagon receptor (GcgR) (Homo sapiens, UniProt P47871).
T2 construct: expressed in transfected cells; host or cells: HEK293
T2 sequence (P47871 26-477): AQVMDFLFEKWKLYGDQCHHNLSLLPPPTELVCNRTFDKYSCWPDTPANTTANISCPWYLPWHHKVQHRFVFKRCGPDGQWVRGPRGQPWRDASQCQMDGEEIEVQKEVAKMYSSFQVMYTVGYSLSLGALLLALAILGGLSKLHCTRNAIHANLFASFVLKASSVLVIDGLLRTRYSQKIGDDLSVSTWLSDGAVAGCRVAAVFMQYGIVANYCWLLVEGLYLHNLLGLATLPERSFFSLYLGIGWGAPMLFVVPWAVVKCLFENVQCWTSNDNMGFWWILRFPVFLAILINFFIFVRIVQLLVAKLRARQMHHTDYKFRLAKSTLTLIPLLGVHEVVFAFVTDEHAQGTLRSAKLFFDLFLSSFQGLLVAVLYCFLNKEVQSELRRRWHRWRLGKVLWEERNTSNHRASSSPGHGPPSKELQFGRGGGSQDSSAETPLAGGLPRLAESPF
Nature of the assay: cAMP functional assay (HTRF) in HEK293 cells in presence of 0.1% casein. It is filed as cell-based. The settings on record: HEK293 cells expressing human GcgR, geometric mean, read-out: hGcgR cAMP Rel EC50 nM (SEM, n). In general terms: TR-FRET usually uses a lanthanide donor and a delayed reading to cut background.

*1 amine or outer side, *2 acyl side, *3 side chain or, on linkers, in order; H or OH if unused. Where a SMILES comes first, the peptide text is derived from it. Side-chain parts run from the residue outwards. [ ]: non-standard residue; d: D form. The star is where a group is joined. C20 diacid = O=C(O)CCCCCCCCCCCCCCCCCCC(=O)*; αMePhe(2-F) = C[C@](N)(Cc1ccccc1F)C(=O)O; γGlu = O=C(O)[C@H](CCC(=O)[*:2])N[*:1]; 4Pal = N[C@@H](Cc1ccncc1)C(=O)O; αMeL = CC(C)C[C@](C)(N)C(=O)O; Iva = CC[C@](C)(N)C(=O)O; AEEA = NCCOCCOCC(=O)O; Aib = CC(C)(N)C(=O)O

T1 sequence (P43220 24-463): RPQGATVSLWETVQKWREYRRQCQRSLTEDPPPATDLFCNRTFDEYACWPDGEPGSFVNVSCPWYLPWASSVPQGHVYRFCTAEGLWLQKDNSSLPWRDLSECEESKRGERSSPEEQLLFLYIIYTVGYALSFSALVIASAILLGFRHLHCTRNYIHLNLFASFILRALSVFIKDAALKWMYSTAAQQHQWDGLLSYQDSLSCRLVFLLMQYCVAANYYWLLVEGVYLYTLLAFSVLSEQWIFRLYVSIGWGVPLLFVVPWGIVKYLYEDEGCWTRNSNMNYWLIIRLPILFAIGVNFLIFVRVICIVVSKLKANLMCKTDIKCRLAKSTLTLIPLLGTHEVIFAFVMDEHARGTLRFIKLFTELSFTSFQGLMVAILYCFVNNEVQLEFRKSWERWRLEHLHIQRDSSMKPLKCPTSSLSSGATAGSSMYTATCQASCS

As a reminder, the Ki is a measure of affinity in units of concentration, obtained from inhibition or displacement. As usually defined, the EC50 is the concentration giving half of the maximal effect. In the case of `CC[C@H](C)[C@H](NC(=O)[C@H](CO)NC(=O)[C@H](Cc1ccc(O)cc1)NC(=O)[C@H](CC(=O)O)NC(=O)[C@H](CO)NC(=O)[C@@H](NC(=O)[C@](C)(Cc1ccccc1F)NC(=O)[C@@H](NC(=O)CNC(=O)[C@H](CCC(=O)O)NC(=O)C(C)(C)NC(=O)[C@@H](N)Cc1ccc(O)cc1)[C@@H](C)O)[C@@H](C)CC)C(=O)N[C@@](C)(CC(C)C)C(=O)N[C@@H](CC(C)C)C(=O)N[C@@H](CC(=O)O)C(=O)N[C@@H](CCCCN)C(=O)N[C@@H](CCCCNC(=O)COCCOCCNC(=O)COCCOCCNC(=O)CC[C@H](NC(=O)CCCCCCCCCCCCCCCCCCC(=O)O)C(=O)O)C(=O)N[C@@H](Cc1c[nH]cn1)C(=O)N[C@@H](CCC(N)=O)C(=O)NC(C)(C)C(=O)N[C@@H](CC(=O)O)C(=O)N[C@@H](Cc1ccccc1)C(=O)N[C@H](C(=O)N[C@@H](CCC(=O)O)C(=O)N[C@@H](Cc1ccncc1)C(=O)N[C@@H](CC(C)C)C(=O)N[C@@H](CC(C)C)C(=O)N[C@@H](C)C(=O)NCC(=O)NCC(=O)N1CCC[C@H]1C(=O)N[C@@H](CO)C(=O)N[C@@H](CO)C(=O)NCC(=O)N[C@@H](C)C(=O)N1CCC[C@H]1C(=O)N1CCC[C@H]1C(=O)N1CCC[C@H]1C(=O)N[C@@H](CO)C(N)=O)C(C)C` [Example 51] (H-Y[Aib]EGT[αMePhe(2-F)]ISDYSI[αMeL]LDKK([AEEA-AEEA-γGlu-C20 diacid])HQ[Aib]DFVE[4Pal]LLAGGPSSGAPPPS-NH2), the Ki in assay [1] turned out to be 54.1 nM. The EC50 in assay [2] was found to be 308 nM.

`CC[C@H](C)[C@H](NC(=O)[C@H](Cc1ccccc1)NC(=O)[C@@H](NC(=O)CNC(=O)[C@H](CCC(=O)O)NC(=O)C(C)(C)NC(=O)[C@@H](N)Cc1ccc(O)cc1)[C@@H](C)O)C(=O)N[C@@H](CO)C(=O)N[C@@H](CC(=O)O)C(=O)N[C@@H](Cc1ccc(O)cc1)C(=O)N[C@@H](CO)C(=O)N[C@H](C(=O)N[C@@](C)(CC(C)C)C(=O)N[C@@H](CC(C)C)C(=O)N[C@@H](CC(=O)O)C(=O)N[C@@H](CCCCN)C(=O)N[C@@H](CCCCNC(=O)COCCOCCNC(=O)COCCOCCNC(=O)CC[C@H](NC(=O)CCCCCCCCCCCCCCCCCCC(=O)O)C(=O)O)C(=O)N[C@@H](Cc1c[nH]cn1)C(=O)N[C@@H](CCC(N)=O)C(=O)NC(C)(C)C(=O)N[C@@H](CCC(=O)O)C(=O)N[C@@H](Cc1ccccc1)C(=O)N[C@H](C(=O)N[C@@H](CCC(=O)O)C(=O)N[C@@H](Cc1ccncc1)C(=O)N[C@@H](CC(C)C)C(=O)N[C@@H](CC(C)C)C(=O)N[C@@H](C)C(=O)NCC(=O)NCC(=O)N1CCC[C@H]1C(=O)N[C@@H](CO)C(=O)N[C@@H](CO)C(=O)NCC(=O)N[C@@H](C)C(=O)N1CCC[C@H]1C(=O)N1CCC[C@H]1C(=O)N1CCC[C@H]1C(=O)N[C@@H](CO)C(N)=O)C(C)C)[C@@H](C)CC` [Example 52]: the Ki in assay [1] worked out at 128 nM. The EC50 in assay [2] was 337 nM.

`CC[C@H](C)[C@H](NC(=O)[C@H](Cc1ccccc1)NC(=O)[C@@H](NC(=O)CNC(=O)[C@H](CCC(=O)O)NC(=O)C(C)(C)NC(=O)[C@@H](N)Cc1ccc(O)cc1)[C@@H](C)O)C(=O)N[C@@H](CO)C(=O)N[C@@H](CC(=O)O)C(=O)N[C@@H](Cc1ccc(O)cc1)C(=O)N[C@@H](CO)C(=O)N[C@H](C(=O)N[C@@](C)(CC(C)C)C(=O)N[C@@H](CC(C)C)C(=O)N[C@@H](CC(=O)O)C(=O)N[C@@H](CCCCN)C(=O)N[C@@H](CCCCNC(=O)COCCOCCNC(=O)COCCOCCNC(=O)CC[C@H](NC(=O)CCCCCCCCCCCCCCCCCCC(=O)O)C(=O)O)C(=O)N[C@@H](Cc1c[nH]cn1)C(=O)N[C@@H](CCC(N)=O)C(=O)NC(C)(C)C(=O)N[C@@H](CC(=O)O)C(=O)N[C@@H](Cc1ccccc1)C(=O)N[C@H](C(=O)N[C@@H](CCC(=O)O)C(=O)N[C@@H](Cc1ccc(O)cc1)C(=O)N[C@@H](CC(C)C)C(=O)N[C@@H](CC(C)C)C(=O)N[C@@H](C)C(=O)NCC(=O)NCC(=O)N1CCC[C@H]1C(=O)N[C@@H](CO)C(=O)N[C@@H](CO)C(=O)NCC(=O)N[C@@H](C)C(=O)N1CCC[C@H]1C(=O)N1CCC[C@H]1C(=O)N1CCC[C@H]1C(=O)N[C@@H](CO)C(N)=O)C(C)C)[C@@H](C)CC` [Example 53] (H-Y[Aib]EGTFISDYSI[αMeL]LDKK([AEEA-AEEA-γGlu-C20 diacid])HQ[Aib]DFVEYLLAGGPSSGAPPPS-NH2): the Ki in assay [1] was determined as 62.9 nM. Further, the EC50 in assay [2] amounted to 344 nM.

With `CC[C@H](C)[C@H](NC(=O)[C@H](Cc1ccccc1)NC(=O)[C@@H](NC(=O)CNC(=O)[C@H](CCC(=O)O)NC(=O)C(C)(C)NC(=O)[C@@H](N)Cc1ccc(O)cc1)[C@@H](C)O)C(=O)N[C@@H](CO)C(=O)N[C@@H](CC(=O)O)C(=O)N[C@@H](Cc1ccc(O)cc1)C(=O)N[C@@H](CO)C(=O)N[C@H](C(=O)N[C@@](C)(CC(C)C)C(=O)N[C@@H](CC(C)C)C(=O)N[C@@H](CC(=O)O)C(=O)N[C@@H](CCCCN)C(=O)N[C@@H](CCCCNC(=O)COCCOCCNC(=O)COCCOCCNC(=O)CC[C@H](NC(=O)CCCCCCCCCCCCCCCCCCC(=O)O)C(=O)O)C(=O)N[C@@H](Cc1c[nH]cn1)C(=O)N[C@@H](CCC(N)=O)C(=O)NC(C)(C)C(=O)N[C@@H](CC(=O)O)C(=O)N[C@@H](Cc1ccccc1)C(=O)N[C@H](C(=O)N[C@@H](CCC(=O)O)C(=O)N[C@@H](Cc1c[nH]c2ccccc12)C(=O)N[C@@H](CC(C)C)C(=O)N[C@@H](CC(C)C)C(=O)N[C@@H](C)C(=O)NCC(=O)NCC(=O)N1CCC[C@H]1C(=O)N[C@@H](CO)C(=O)N[C@@H](CO)C(=O)NCC(=O)N[C@@H](C)C(=O)N1CCC[C@H]1C(=O)N1CCC[C@H]1C(=O)N1CCC[C@H]1C(=O)N[C@@H](CO)C(N)=O)C(C)C)[C@@H](C)CC` [Example 54] (H-Y[Aib]EGTFISDYSI[αMeL]LDKK([AEEA-AEEA-γGlu-C20 diacid])HQ[Aib]DFVEWLLAGGPSSGAPPPS-NH2), the Ki in assay [1] amounted to 49.9 nM. Moreover, the EC50 in assay [2] is > 5000 nM.

Turning to `CC[C@H](C)[C@H](NC(=O)[C@H](CO)NC(=O)[C@H](Cc1ccc(O)cc1)NC(=O)[C@H](CC(=O)O)NC(=O)[C@H](CO)NC(=O)[C@@H](NC(=O)[C@](C)(CC)NC(=O)[C@@H](NC(=O)CNC(=O)[C@H](CCC(=O)O)NC(=O)C(C)(C)NC(=O)[C@@H](N)Cc1ccc(O)cc1)[C@@H](C)O)[C@@H](C)CC)C(=O)N[C@@](C)(CC(C)C)C(=O)N[C@@H](CC(C)C)C(=O)N[C@@H](CC(=O)O)C(=O)N[C@@H](CCCCN)C(=O)N[C@@H](CCCCNC(=O)COCCOCCNC(=O)COCCOCCNC(=O)CC[C@H](NC(=O)CCCCCCCCCCCCCCCCCCC(=O)O)C(=O)O)C(=O)N[C@@H](Cc1c[nH]cn1)C(=O)N[C@@H](CCC(N)=O)C(=O)NC(C)(C)C(=O)N[C@@H](CC(=O)O)C(=O)N[C@@H](Cc1ccccc1)C(=O)N[C@H](C(=O)N[C@@H](CCC(=O)O)C(=O)N[C@@H](Cc1ccncc1)C(=O)N[C@@H](CC(C)C)C(=O)N[C@@H](CC(C)C)C(=O)N[C@@H](C)C(=O)NCC(=O)NCC(=O)N1CCC[C@H]1C(=O)N[C@@H](CO)C(=O)N[C@@H](CO)C(=O)NCC(=O)N[C@@H](C)C(=O)N1CCC[C@H]1C(=O)N1CCC[C@H]1C(=O)N1CCC[C@H]1C(=O)N[C@@H](CO)C(N)=O)C(C)C` [Example 55] (H-Y[Aib]EGT[Iva]ISDYSI[αMeL]LDKK([AEEA-AEEA-γGlu-C20 diacid])HQ[Aib]DFVE[4Pal]LLAGGPSSGAPPPS-NH2), in assay [1], the Ki stood at 262 nM. Moreover, in assay [2], the EC50 was > 5000 nM.

Regarding `CC[C@H](C)[C@H](NC(=O)[C@H](Cc1ccccc1)NC(=O)[C@@H](NC(=O)CNC(=O)[C@H](CCC(=O)O)NC(=O)C(C)(C)NC(=O)[C@@H](N)Cc1ccc(O)cc1)[C@@H](C)O)C(=O)N[C@@H](CO)C(=O)N[C@@H](CC(=O)O)C(=O)N[C@@H](Cc1ccc(O)cc1)C(=O)N[C@@H](CO)C(=O)N[C@H](C(=O)N[C@@](C)(CC(C)C)C(=O)N[C@@H](CC(C)C)C(=O)N[C@@H](CC(=O)O)C(=O)N[C@@H](CCCCN)C(=O)N[C@@H](CCCCNC(=O)COCCOCCNC(=O)COCCOCCNC(=O)CC[C@H](NC(=O)CCCCCCCCCCCCCCCCCCC(=O)O)C(=O)O)C(=O)N[C@@H](Cc1c[nH]cn1)C(=O)N[C@@H](CCC(N)=O)C(=O)NC(C)(C)C(=O)N[C@@H](CC(=O)O)C(=O)N[C@@](C)(Cc1ccccc1)C(=O)N[C@H](C(=O)N[C@@H](CCC(=O)O)C(=O)N[C@@H](Cc1ccncc1)C(=O)N[C@@H](CC(C)C)C(=O)N[C@@H](CC(C)C)C(=O)N[C@@H](C)C(=O)NCC(=O)NCC(=O)N1CCC[C@H]1C(=O)N[C@@H](CO)C(=O)N[C@@H](CO)C(=O)NCC(=O)N[C@@H](C)C(=O)N1CCC[C@H]1C(=O)N1CCC[C@H]1C(=O)N1CCC[C@H]1C(=O)N[C@@H](CO)C(N)=O)C(C)C)[C@@H](C)CC` [Example 56], in assay [1], the Ki is 530 nM. In addition, the EC50 in assay [2] was > 5000 nM.

Turning to `CC[C@H](C)[C@H](NC(=O)[C@H](Cc1ccccc1)NC(=O)[C@@H](NC(=O)CNC(=O)[C@H](CCC(=O)O)NC(=O)C(C)(C)NC(=O)[C@@H](N)Cc1ccc(O)cc1)[C@@H](C)O)C(=O)N[C@@H](CO)C(=O)N[C@@H](CC(=O)O)C(=O)N[C@@H](Cc1ccc(O)cc1)C(=O)N[C@@H](CO)C(=O)N[C@H](C(=O)N[C@@](C)(CC(C)C)C(=O)N[C@@H](CC(C)C)C(=O)N[C@@H](CC(=O)O)C(=O)N[C@@H](CCCCN)C(=O)N[C@@H](CCCCNC(=O)COCCOCCNC(=O)COCCOCCNC(=O)CC[C@H](NC(=O)CCCCCCCCCCCCCCCCCCC(=O)O)C(=O)O)C(=O)N[C@@H](Cc1c[nH]cn1)C(=O)N[C@@H](CCC(N)=O)C(=O)NC(C)(C)C(=O)N[C@@H](CCC(=O)O)C(=O)N[C@@H](Cc1ccccc1)C(=O)N[C@H](C(=O)N[C@@H](CCC(=O)O)C(=O)N[C@@H](Cc1ccncc1)C(=O)N[C@@H](CC(C)C)C(=O)N[C@@H](CC(C)C)C(=O)N[C@@H](C)C(=O)N[C@@H](CCC(N)=O)C(=O)NCC(=O)N1CCC[C@H]1C(=O)N[C@@H](CO)C(=O)N[C@@H](CO)C(=O)NCC(=O)N[C@@H](C)C(=O)N1CCC[C@H]1C(=O)N1CCC[C@H]1C(=O)N1CCC[C@H]1C(=O)N[C@@H](CO)C(N)=O)C(C)C)[C@@H](C)CC` [Example 57] (H-Y[Aib]EGTFISDYSI[αMeL]LDKK([AEEA-AEEA-γGlu-C20 diacid])HQ[Aib]EFVE[4Pal]LLAQGPSSGAPPPS-NH2), the Ki in assay [1] came to 280 nM. Moreover, the EC50 in assay [2] was 886 nM.
